These results are taken from patent US12172966B1, “2-(1H-imidazole-1-carbonyl)benzoic acid as an anticancer compound” (KING FAISAL UNIVERSITY, priority 2023, dated 2024).

Test [1] has as its system human prostate cancer cells (PC3). As to the kind of experiment: Assessment of cytotoxicity by SRB assay, prostate cancer cells. The test is classed as cell-based. The following applies: for IC50: mean±SD. From the text: (§1) The anticancer activity of the described synthesized compounds against highly aggressive androgen-independent metastatic human prostate cancer cells (PC3) and osteosarcoma (MG-63) cells. The human prostate cancer cells (PC3) and human osteosarcoma cells (MG-63) were obtained from Nawah Scientific Inc. (Mokatam, Cairo, Egypt) and cultured in DMEM (Dulbecco's modified eagle's medium), Gibco, USA, supplemented with fetal bovine serum (FBS) at a concentration of 10% and 100 U/mL of penicillin and streptomycin (PS). The Cells were incubated at 37° C. in a humidified environment that contained 5% CO2.
(§2) Cells were seeded in 96-well plates as aliquots of 100 μL cell suspension and incubated in a complete media for 24 h. afterward, cells were treated with 2-(1H-imidazole-1-carbonyl)benzoic acid at diverse concentrations ranging from 0.01 μM to 100 μM for 72 h. Then, cells were fixed at 4° C. for one hour with 150 μL of 10% trichloroacetic acid (TCA). After washing the cells five times with distilled water, […] of sulforhodamine (SRB) solution (0.4% w/v) was added and incubated for 10 min at room temperature in a dark place. Cells were washed with 1% acetic acid three times and allowed to air-dry. Then, 150 μL of Tris pH 10.5 (10 mM) was added, and the absorbance was measured at 540 nm using a BMG LABTECH®—FLUOstar Omega microplate reader (Ortenberg, Germany). Half maximal inhibitory concentrations (IC50) values were calculated for each experiment using GraphPad Prism 6 software. IC50 values were reported as mean±SD.
(§3) The inhibition was calculated using the following equation: Inhibition %=100−Average Viability
(In general: Sulforhodamine B stains cellular protein and so reports cell mass.)

Test [2] deals with human osteosarcoma cells (MG-63). As to the kind of experiment: Assessment of cytotoxicity by SRB assay, osteosarcoma cells. The test is classed as cell-based. The following applies: for IC50: mean±SD.
From the text: as §1, §2, §3

Setting [3] is: Homo sapiens, MG-63 cells, 72 h.

As to `O=C(O)c1ccccc1C(=O)n1ccnc1` [2-(1H-imidazole-1-carbonyl)benzoic acid], the inhibition (as a rule, the percentage by which the read-out fell short of the control) at 10 µg/mL in test [1] (Homo sapiens, PC-3, 72 h, PC-3 cells, 10 μg/ml, 72 h) stood at 93%; in test [2] (Homo sapiens, MG-63 cells, 10 μg/ml, 72 h) it was 88.9%. The IC50 (usually the concentration at which inhibition is half-maximal) in test [1] (Homo sapiens, PC-3 cells, 72 h) was 2.67 ± 0.03 µM; in test [2] (setting [3]), 3.55 ± 0.2 µM. For the same compound, in test [1] (PC-3 cells, 10 μg/ml, 72 h), the “Prostate cancer (PC-3) Inhibition %” value was 93.44%. In test [1] (PC-3 cells, bound stated in text for both cell lines), the IC50 values, prostate cancer cell line is less than 4 µM. Moreover, the “antiproliferative activities against cancer cells (PC3)” value in test [1] (result in words) is recorded as “excellent antiproliferative activities”. In test [2] (Homo sapiens, MG-63 cells, 100 μg/ml, 72 h), this compound had an inhibition at 100 µg/mL of 90.9%. The same compound came in with an IC50 values, osteosarcoma cell line in test [2] (MG-63 cells, bound stated in text for both cell lines) of less than 4 µM. In addition, the “antiproliferative activities against osteosarcoma (MG-63) cells” value in test [2] (result in words) is “excellent antiproliferative activities”.

For the compound `COc1cccc2c1C(=O)c1c(O)c3c(c(O)c1C2=O)C[C@@](O)(C(=O)CO)C[C@@H]3O[C@H]1C[C@H](N)[C@H](O)[C@H](C)O1` [DOX, Doxorubicin, reference compound], the IC50 in test [1] (Homo sapiens, PC-3 cells, 72 h) turned out to be 7.5 ± 0.45 µM; in test [2] (setting [3]), 9.3 ± 1.1 µM.
